Assay results from ChEMBL document CHEMBL2429779, “Synthesis and anti-inflammatory activity of three nitro chalcones” (Bioorg Med Chem Lett, 2013).
Active and inactive are the calls of the source. No cut-off for these calls is given here.

Columns and labels:
Rattus norvegicus [1] = test: Antiinflammatory activity in Wistar rat assessed as protection against carrageenan-induced paw edema at 200 mg/kg, po after 7 hrs by pletismometric analysis relative to vehicle-treated control; format: functional
[2] = Solubility of the compound in water; format: physicochemical; details: buffer
[3] = Solubility of the compound in DMSO; format: physicochemical
Rattus norvegicus [4] = test: Antiinflammatory activity in Wistar rat assessed as protection against carrageenan-induced paw edema at 200 mg/kg, ip measured after 2 to 7 hrs by pletismometric analysis; format: functional, organism-based; parameters: dose 200 mg/kg
Rattus norvegicus [5] = test: Antiinflammatory activity in Wistar rat assessed as protection against carrageenan-induced paw edema at 200 mg/kg, ip measured after 1 hr by pletismometric analysis relative to vehicle-treated control; format: functional; details: route intraperitoneal
Rattus norvegicus [6] = test: Antiinflammatory activity in Wistar rat assessed as protection against carrageenan-induced paw edema at 200 mg/kg, ip by pletismometric analysis; format: functional, organism-based; parameters: dose 200 mg/kg; details: TDE = time-dependent effect
Rattus norvegicus [7] = test: Antiinflammatory activity in Wistar rat assessed as protection against carrageenan-induced paw edema at 200 mg/kg, po after 2 hrs by pletismometric analysis relative to vehicle-treated control; format: functional
Rattus norvegicus [8] = test: Antiinflammatory activity in Wistar rat assessed as protection against carrageenan-induced paw edema at 200 mg/kg, po after 3 to 7 hrs by pletismometric analysis relative to vehicle-treated control; format: functional, organism-based; parameters: dose 200 mg/kg
Rattus norvegicus [9] = test: Antiinflammatory activity in Wistar rat assessed as protection against carrageenan-induced paw edema at 200 mg/kg, po by pletismometric analysis; format: functional, organism-based; parameters: dose 200 mg/kg; details: TDE = time-dependent effect
Rattus norvegicus [10] = test: Antiinflammatory activity in Wistar rat assessed as protection against carrageenan-induced paw edema at 200 mg/kg, ip measured after 2 to 7 hrs by pletismometric analysis relative to vehicle-treated control; format: functional; details: route intraperitoneal
Rattus norvegicus [11] = test: Antiinflammatory activity in Wistar rat assessed as protection against carrageenan-induced paw edema at 200 mg/kg, po after 4 to 7 hrs by pletismometric analysis relative to vehicle-treated control; format: functional
Rattus norvegicus [12] = test: Antiinflammatory activity in Wistar rat assessed as protection against carrageenan-induced paw edema at 200 mg/kg, po after 3 hrs by pletismometric analysis relative to vehicle-treated control; format: functional
Rattus norvegicus [13] = test: Antiinflammatory activity in Wistar rat assessed as protection against carrageenan-induced paw edema at 10 mg/kg, po after 3 to 7 hrs by pletismometric analysis relative to vehicle-treated control; format: functional
Rattus norvegicus [14] = test: Antiinflammatory activity in Wistar rat assessed as protection against carrageenan-induced paw edema at 10 mg/kg, po after 2 hrs by pletismometric analysis relative to vehicle-treated control; format: functional
Rattus norvegicus [15] = test: Antiinflammatory activity in Wistar rat assessed as protection against carrageenan-induced paw edema at 200 mg/kg, po after 2 to 7 hrs by pletismometric analysis relative to vehicle-treated control; format: functional, organism-based; parameters: dose 200 mg/kg
Rattus norvegicus [16] = test: Antiinflammatory activity in Wistar rat assessed as protection against carrageenan-induced paw edema at 200 mg/kg, ip measured after 3 to 7 hrs by pletismometric analysis relative to vehicle-treated control; format: functional, organism-based; parameters: dose 200 mg/kg
Rattus norvegicus [17] = test: Antiinflammatory activity in Wistar rat assessed as protection against carrageenan-induced paw edema at 200 mg/kg, ip measured after 2 hrs by pletismometric analysis relative to vehicle-treated control; format: functional; details: route intraperitoneal
Rattus norvegicus [18] = test: Antiinflammatory activity in Wistar rat assessed as protection against carrageenan-induced paw edema at 200 mg/kg, po after 1 hr by pletismometric analysis relative to vehicle-treated control; format: functional

| Compound | Activity (Rattus norvegicus [1]) | solubility [2] | solubility [3] | Activity (Rattus norvegicus [4]) | %max (Rattus norvegicus [5]) | Activity (Rattus norvegicus [6]) | %max (Rattus norvegicus [7]) | Activity (Rattus norvegicus [8]) | Activity (Rattus norvegicus [9]) | Activity (Rattus norvegicus [10]) | Activity (Rattus norvegicus [11]) | %max (Rattus norvegicus [12]) | Activity (Rattus norvegicus [13]) | %max (Rattus norvegicus [14]) | Activity (Rattus norvegicus [15]) | Activity (Rattus norvegicus [16]) | %max (Rattus norvegicus [17]) | %max (Rattus norvegicus [18]) | Activity (Rattus norvegicus [7]) |
| --- | --- | --- | --- | --- | --- | --- | --- | --- | --- | --- | --- | --- | --- | --- | --- | --- | --- | --- | --- |
| O=C(/C=C/c1ccccc1)c1cccc([N+](=O)[O-])c1 | 0% | Insoluble | soluble | Active | 68% | tde | 31% | inactive | tde | – | – | – | – | – | – | – | – | – | – |
| O=C(/C=C/c1ccccc1)c1ccccc1[N+](=O)[O-] | – | Insoluble | soluble | – | 58.2% | tde | – | – | tde | 50% | 30% | 34.8% | – | – | – | – | – | – | – |
| Cc1cnc(NC(=O)C2=C(O)c3ccccc3S(=O)(=O)N2C)s1 [MELOXICAM] | – | – | – | – | – | – | – | – | – | – | – | – | 50% | 59.3% | – | – | – | – | – |
| O=C(/C=C/c1ccccc1)c1ccc([N+](=O)[O-])cc1 | – | Insoluble | soluble | – | – | tde | – | – | tde | – | – | – | – | – | Active | Active | 43.2% | 38% | 20% |
